From ChEMBL document CHEMBL5236667, “Synthesis of pyrrolo[3,2-d]pyrimidineone derivatives as novel FXa inhibitors” (Bioorg Med Chem Lett, 2023)
Blank lines part the entries; values can stand above or below the compound they belong to. Calls of active or inactive are those of the source. No cut-off for these calls is given here.

Key:
[1] = species on record: Oryctolagus cuniculus; assay: Anticoagulant activity in rabbit plasma assessed as T/C ratio of prothrombin time (reference value: 1); type: functional
[2] = target: T1, Coagulation factor X (Homo sapiens, UniProt P00742); assay: Inhibition of factor Xa (unknown origin) assessed as residual enzymatic activity at 20 nM
T1 sequence (P00742 41-179 limits assumed): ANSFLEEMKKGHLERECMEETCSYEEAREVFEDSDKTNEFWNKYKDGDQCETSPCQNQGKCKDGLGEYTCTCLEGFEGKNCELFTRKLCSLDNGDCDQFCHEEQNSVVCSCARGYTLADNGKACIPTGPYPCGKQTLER
T1 sequence (P00742 235-488 limits assumed): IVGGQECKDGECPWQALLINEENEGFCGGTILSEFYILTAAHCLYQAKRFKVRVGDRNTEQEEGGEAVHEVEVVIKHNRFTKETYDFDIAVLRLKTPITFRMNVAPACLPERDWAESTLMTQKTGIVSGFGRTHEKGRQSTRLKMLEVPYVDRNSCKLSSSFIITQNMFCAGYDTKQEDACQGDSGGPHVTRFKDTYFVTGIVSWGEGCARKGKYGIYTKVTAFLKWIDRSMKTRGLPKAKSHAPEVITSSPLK

[3] = species on record: Oryctolagus cuniculus; assay: Anticoagulant activity in rabbit plasma assessed as increase in prothrombin time at 20 to 62500 nM; type: functional; details: dose 20-62500 nM
[4] = target: T1, Coagulation factor X; assay: Inhibition of factor Xa (unknown origin)
[5] = target: T1, Coagulation factor X; assay: Potency index, ratio of rivaroxaban IC50 to test compound IC50 for inhibition of factor Xa (unknown origin)
[6] = test system: Rattus norvegicus; assay: Antithrombotic activity in […]-induced venous thrombosis rat model assessed as reduction in thrombus weight at 1 mg/kg (reference value: 7.79 +/- 1.62 mg); type: functional
[7] = test system: Rattus norvegicus; assay: Antithrombotic activity in […]-induced venous thrombosis rat model assessed as thrombus inhibition rate at 1 mg/kg relative to control; type: functional
[8] = test system: Rattus norvegicus; assay: Antithrombotic activity in FlC3-induced venous thrombosis rat model assessed as reduction in thrombus weight at 1 mg/kg (reference value: 9.7 +/- 1.62 mg); type: functional
[9] = test system: Rattus norvegicus; assay: Antithrombotic activity in […]-induced venous thrombosis rat model assessed as reduction in thrombus weight at 0.5 mg/kg (reference value: 9.7 +/- 1.62 mg); type: functional
[10] = test system: Rattus norvegicus; assay: Antithrombotic activity in […]-induced venous thrombosis rat model assessed as reduction in thrombus weight at 2 mg/kg (reference value: 9.7 +/- 1.62 mg); type: functional
[11] = test system: Rattus norvegicus; assay: Antithrombotic activity in […]-induced venous thrombosis rat model assessed as thrombus inhibition rate at 0.5 mg/kg relative to control; type: functional
[12] = test system: Rattus norvegicus; assay: Antithrombotic activity in […]-induced venous thrombosis rat model assessed as thrombus inhibition rate at 2 mg/kg relative to control; type: functional

Activity [2]: 46.7%
IC50 [4]: 1.57 nM
Ratio IC50 [5]: 9
SMILES: COc1ccc(-n2cc(C(N)=O)c3ncn(-c4ccc(N5CCOCC5=O)cc4)c(=O)c32)cc1
T/C [1]: 1.99
Activity [3]: Active
Activity [6]: 2.73 mg
inhibition in vivo at 1 mg/kg [7]: 65%
Activity [8]: 3.05 mg
Activity [9]: 5.36 mg
Activity [10]: 2.6 mg
inhibition in vivo at 0.5 mg/kg [11]: 45%
inhibition in vivo at 2 mg/kg [12]: 73%

Activity [2]: 45.8%
IC50 [4]: 3.69 nM
Ratio IC50 [5]: 4
SMILES: COc1ccc(-n2cc(C#N)c3ncn(-c4ccc(N5CCC[C@H]5C(N)=O)cc4)c(=O)c32)cc1
T/C [1]: 1.67
Activity [6]: 3.65 mg
inhibition in vivo at 1 mg/kg [7]: 53%

Activity [2]: 45.8%
SMILES: O=C(NC[C@H]1CN(c2ccc(N3CCOCC3=O)cc2)C(=O)O1)c1ccc(Cl)s1 [RIVAROXABAN]
T/C [1]: 2.03
inhibition in vivo at 1 mg/kg [7]: 75%
Activity [8]: 2.41 mg

Continued, compound first:

SMILES: COc1ccc(-n2cc(C#N)c3ncn(-c4ccc(N5CCOCC5=O)cc4)c(=O)c32)cc1
T/C [1]: 1.88
Activity [2]: 59.8%
Activity [3]: Active

SMILES: COc1ccc(-n2nc(C(N)=O)c3c2C(=O)N(c2ccc(N4CCCCC4=O)cc2)CC3)cc1 [APIXABAN]
Activity [6]: 3.24 mg
inhibition in vivo at 1 mg/kg [7]: 58%
Activity [9]: 3.33 mg
inhibition in vivo at 0.5 mg/kg [11]: 66%
